For `COc1ccc2c(c1)c(-c1cc3c(OC)ncnc3[nH]1)cn2C` [Example 10, 4-Methoxy-6-(5-methoxy-1-methyl-1H-indol-3-yl)-7H-pyrrolo[2,3-d]pyrimidine], the melting point (as a rule, the temperature, or range, at which the solid turns liquid) worked out at 184 °C.
For `COc1ccc2[nH]cc(-c3cc4c(OC)ncnc4[nH]3)c2c1` [Example 11, 4-Methoxy-6-(5-methoxy-1H-indol-3-yl)-7H-pyrrolo[2,3-d]pyrimidine] the value was over 260 °C.

These data come from patent US7259154B2, “Pyrrolopyrimidines” (Aventis Pharmaceuticals Inc., priority 2001, dated 2007).
